Molecular target: T1, Human Cav3.2 Channels (Homo sapiens, UniProt O95180)
T1 construct: expressed in transfected cells
Test: Electrophysiologic (whole-cell patch-clamp) assessment of calcium channel activity in HEK293 cells stably expressing hCav3.2
Format: cell-based
Details: −77 mV, geometric mean, read-out: Human Cav3.2 −77 mV IC50 (μM) GeoMean
Procedure: (i) In Vitro Methods—Electrophysiologic Assessment of Calcium Channel Activity:
Patch-clamp recordings were performed using HEK293 cells stably expressing hCav3.2. Cells were plated in T175 flasks and grown at 37° C. and under 5% CO2 to approximately 50% confluency. On the day of the experiment, cells were harvested with Detachin™ cell detachment solution (Genlantis, San Diego, Calif.) and maintained in serum-free culture medium supplemented with 25 mM HEPES up to several hours prior to experiment. Whole-cell patch-clamp recordings were obtained using extracellular saline consisting of (mM): 87.5 CsCl, 40 TEA-Cl, 5 CaCl2, 1 MgCl2, 10 HEPES, 10 glucose. The pH was adjusted to 7.2 with CsOH and the osmolarity was adjusted to approximately 310 mOsm with sucrose. Intracellular solution consisted of (mM): 112 CsCl, 27 CsF, 2 NaCl, 8.2 EGTA, 10 HEPES. Prior to an experiment 4 mM Mg2ATP was added and the pH was adjusted to 7.2 with CsOH with an osmolarity of approximately 290 mOsm. A two-pulse voltage protocol was utilized to assess compound inhibition. First, cells were held with an 8 s pre-pulse at −100 mV prior to a 160 ms test pulse to −30 mV. This was followed by an 8 s pre-pulse at approximately −75 mV prior to a […]. Increasing concentrations of antagonist were applied to individual cells in a multi-addition format with 5 minutes in each test concentration. For each cell, responses were normalized to dimethyl sulfoxide vehicle control to generate concentration-response curves.

T1 sequence (O95180 whole entry): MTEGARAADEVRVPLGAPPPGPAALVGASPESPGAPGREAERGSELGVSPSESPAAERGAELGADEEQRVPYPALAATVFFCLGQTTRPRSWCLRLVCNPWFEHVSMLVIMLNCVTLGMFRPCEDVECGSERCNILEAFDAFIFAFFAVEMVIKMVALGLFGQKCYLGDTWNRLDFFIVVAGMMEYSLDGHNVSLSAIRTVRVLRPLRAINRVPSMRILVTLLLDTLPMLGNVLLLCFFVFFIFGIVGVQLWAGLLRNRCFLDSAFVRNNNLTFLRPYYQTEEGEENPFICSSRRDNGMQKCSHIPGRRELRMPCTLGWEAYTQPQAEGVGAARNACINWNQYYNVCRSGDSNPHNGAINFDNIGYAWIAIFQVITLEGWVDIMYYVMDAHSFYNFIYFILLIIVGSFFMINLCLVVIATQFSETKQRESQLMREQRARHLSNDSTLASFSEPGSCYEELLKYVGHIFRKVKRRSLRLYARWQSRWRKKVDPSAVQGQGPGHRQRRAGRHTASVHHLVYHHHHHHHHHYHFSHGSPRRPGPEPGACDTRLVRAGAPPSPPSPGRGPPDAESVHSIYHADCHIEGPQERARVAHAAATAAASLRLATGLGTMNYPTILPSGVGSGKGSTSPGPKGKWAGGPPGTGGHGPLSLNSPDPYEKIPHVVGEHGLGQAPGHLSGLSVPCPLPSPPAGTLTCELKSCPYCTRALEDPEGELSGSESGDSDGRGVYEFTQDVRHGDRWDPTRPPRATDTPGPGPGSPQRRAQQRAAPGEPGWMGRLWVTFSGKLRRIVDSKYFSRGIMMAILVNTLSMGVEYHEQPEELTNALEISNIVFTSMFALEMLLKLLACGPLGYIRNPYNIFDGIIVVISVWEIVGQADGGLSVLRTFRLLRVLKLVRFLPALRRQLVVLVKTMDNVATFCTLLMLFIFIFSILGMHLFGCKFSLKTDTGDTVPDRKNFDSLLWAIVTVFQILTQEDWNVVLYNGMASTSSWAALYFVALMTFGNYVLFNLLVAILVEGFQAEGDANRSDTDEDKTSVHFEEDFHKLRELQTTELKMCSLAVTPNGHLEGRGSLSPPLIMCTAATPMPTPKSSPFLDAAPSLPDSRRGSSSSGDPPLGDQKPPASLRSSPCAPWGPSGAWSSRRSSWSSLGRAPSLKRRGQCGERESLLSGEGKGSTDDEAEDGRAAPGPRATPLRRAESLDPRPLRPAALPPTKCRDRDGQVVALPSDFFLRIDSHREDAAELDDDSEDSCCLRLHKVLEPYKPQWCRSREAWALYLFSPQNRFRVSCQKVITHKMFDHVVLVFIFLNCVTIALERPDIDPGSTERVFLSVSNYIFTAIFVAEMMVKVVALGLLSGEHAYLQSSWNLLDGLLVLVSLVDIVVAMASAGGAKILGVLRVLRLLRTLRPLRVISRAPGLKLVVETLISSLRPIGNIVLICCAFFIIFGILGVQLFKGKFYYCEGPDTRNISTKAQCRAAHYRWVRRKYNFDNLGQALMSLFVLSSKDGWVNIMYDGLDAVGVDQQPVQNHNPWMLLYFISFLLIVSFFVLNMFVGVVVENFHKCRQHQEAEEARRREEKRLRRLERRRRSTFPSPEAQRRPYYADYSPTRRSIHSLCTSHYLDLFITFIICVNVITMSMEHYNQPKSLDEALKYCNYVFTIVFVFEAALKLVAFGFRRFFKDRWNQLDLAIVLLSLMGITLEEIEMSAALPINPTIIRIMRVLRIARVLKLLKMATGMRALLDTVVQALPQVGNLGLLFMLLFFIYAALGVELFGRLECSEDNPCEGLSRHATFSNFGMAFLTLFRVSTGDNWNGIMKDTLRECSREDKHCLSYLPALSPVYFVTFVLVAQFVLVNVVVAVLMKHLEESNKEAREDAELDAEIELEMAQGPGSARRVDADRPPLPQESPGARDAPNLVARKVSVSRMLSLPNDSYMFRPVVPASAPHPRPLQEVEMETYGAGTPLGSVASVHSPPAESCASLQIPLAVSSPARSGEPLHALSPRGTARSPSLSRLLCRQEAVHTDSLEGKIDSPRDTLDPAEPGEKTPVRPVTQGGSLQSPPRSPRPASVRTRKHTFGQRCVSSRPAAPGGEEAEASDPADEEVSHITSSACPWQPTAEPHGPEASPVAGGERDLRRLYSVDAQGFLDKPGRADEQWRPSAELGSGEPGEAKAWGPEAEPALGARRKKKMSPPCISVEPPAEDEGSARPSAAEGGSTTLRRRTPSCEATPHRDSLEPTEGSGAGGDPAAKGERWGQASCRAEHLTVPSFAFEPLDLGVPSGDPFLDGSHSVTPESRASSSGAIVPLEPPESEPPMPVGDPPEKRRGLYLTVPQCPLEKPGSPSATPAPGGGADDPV

Row | SMILES | IC50
1 | O=C(c1cccc(S(=O)(=O)Nc2ccc(F)cc2F)c1)N1CCN2CCC[C@@H]2C1 [Example 18, N-(2,4-difluorophenyl)-3-[(8aR)-hexahydropyrrolo[1,2-a]pyrazin-2(1H)-ylcarbonyl]benzenesulfonamide] | 9.3 µM
2 | O=C(c1cccc(S(=O)(=O)Nc2ccccc2C(F)(F)F)c1)N1CCN2CCC[C@H]2C1 [Example 19, 3-[(8aS)-hexahydropyrrolo[1,2-a]pyrazin-2(1H)-ylcarbonyl]-N-[2-(trifluoromethyl)phenyl]benzenesulfonamide] | 2.4 µM
3 | O=C(c1cccc(S(=O)(=O)Nc2cccc(Cl)c2)c1)N1CCN2CCC[C@H]2C1 [Example 21, N-(3-chlorophenyl)-3-[(8aS)-hexahydropyrrolo[1,2-a]pyrazin-2(1H)-ylcarbonyl]benzenesulfonamide] | 5.9 µM
4 | O=C(c1cccc(S(=O)(=O)N2CCN(C(c3ccc(F)cc3)c3ccc(F)cc3)CC2)c1)N1CCN2CCC[C@@H]2C1 [Example 22, (8aR)-2-[3-({4-[bis(4-fluorophenyl)methyl]piperazin-1-yl}sulfonyl)benzoyl]octahydropyrrolo[1,2-a]pyrazine] | 1.4 µM
5 | O=C(c1cccc(S(=O)(=O)N2CCN(C(c3ccc(F)cc3)c3ccc(F)cc3)CC2)c1)N1CCN2CCC[C@H]2C1 [Example 23, (8aS)-2-[3-({4-[bis(4-fluorophenyl)methyl]piperazin-1-yl}sulfonyl)benzoyl]octahydropyrrolo[1,2-a]pyrazine] | 2.5 µM
6 | O=C(c1cccc(S(=O)(=O)N2CCN(C(c3ccccc3)c3ccccc3)CC2)c1)N1CCN2CCC[C@@H]2C1 [Example 24, (8aR)-2-{3-[(4-benzhydrylpiperazin-1-yl)sulfonyl]benzoyl}octahydropyrrolo[1,2-a]pyrazine] | 1 µM
7 | O=C(c1cccc(S(=O)(=O)Nc2cccc(Cl)c2)c1)N1CCN2CCC[C@@H]2C1 [Example 25, N-(3-chlorophenyl)-3-[(8aR)-hexahydropyrrolo[1,2-a]pyrazin-2(1H)-ylcarbonyl]benzenesulfonamide] | 8.9 µM
8 | O=C(c1cccc(S(=O)(=O)NCC(c2ccccc2)c2ccccc2)c1)N1CCN2CCC[C@@H]2C1 [Example 26, N-(2,2-diphenylethyl)-3-[(8aR)-hexahydropyrrolo[1,2-a]pyrazin-2(1H)-ylcarbonyl]benzenesulfonamide] | 1.5 µM
9 | O=C(c1cccc(S(=O)(=O)Nc2ccccc2C(F)(F)F)c1)N1CCN2CCC[C@@H]2C1 [Example 27, 3-[(8aR)-hexahydropyrrolo[1,2-a]pyrazin-2(1H)-ylcarbonyl]-N-[2-(trifluoromethyl)phenyl]benzenesulfonamide] | > 10 µM
10 | O=C(c1cccc(S(=O)(=O)N2CCN(C(c3ccccc3)c3ccccc3)CC2)c1)N1CCN2CCC[C@H]2C1 [Example 28, (8aS)-2-{3-[(4-benzhydrylpiperazin-1-yl)sulfonyl]benzoyl}octahydropyrrolo[1,2-a]pyrazine] | 1.9 µM
11 | O=C(c1cccc(S(=O)(=O)NCCC(c2ccccc2)c2ccccc2)c1)N1CCN2CCC[C@@H]2C1 [Example 29, N-(3,3-diphenylpropyl)-3-[(8aR)-hexahydropyrrolo[1,2-a]pyrazin-2(1H)-ylcarbonyl]benzenesulfonamide] | 2.1 µM
12 | O=C(c1cccc(S(=O)(=O)NCCC(c2ccccc2)c2ccccc2)c1)N1CCN2CCC[C@H]2C1 [Example 30, N-(3,3-diphenylpropyl)-3-[(8aS)-hexahydropyrrolo[1,2-a]pyrazin-2(1H)-ylcarbonyl]benzenesulfonamide] | 1.8 µM
13 | O=C(c1cccc(S(=O)(=O)NCC(c2ccccc2)c2ccccc2)c1)N1CCN2CCC[C@H]2C1 [Example 31, N-(2,2-diphenylethyl)-3-[(8aS)-hexahydropyrrolo[1,2-a]pyrazin-2(1H)-ylcarbonyl]benzenesulfonamide] | 3.3 µM
14 | O=C(c1cc(S(=O)(=O)Nc2ccc(C(F)(F)F)cc2)ccc1Cl)N1CCN2CCC[C@@H]2C1 [Example 32, 4-chloro-3-[(8aR)-hexahydropyrrolo[1,2-a]pyrazin-2(1H)-ylcarbonyl]-N-[4-(trifluoromethyl)phenyl]benzenesulfonamide] | 8.4 µM
15 | O=C(c1cccc(S(=O)(=O)NCCc2ccc(F)cc2)c1)N1CCN2CCC[C@H]2C1 [Example 33, N-[2-(4-fluorophenyl)ethyl]-3-[(8aS)-hexahydropyrrolo[1,2-a]pyrazin-2(1H)-ylcarbonyl]benzenesulfonamide] | 5.7 µM
16 | O=C(c1ccc(Cl)c(S(=O)(=O)Nc2ccc(C(F)(F)F)cc2)c1)N1CCN2CCC[C@@H]2C1 [Example 34, 2-chloro-5-[(8aR)-hexahydropyrrolo[1,2-a]pyrazin-2(1H)-ylcarbonyl]-N-[4-(trifluoromethyl)phenyl]benzenesulfonamide] | 6.2 µM
17 | O=C(c1cccc(S(=O)(=O)N2CCN(c3ccc(F)cc3)CC2)c1)N1CCN2CCC[C@H]2C1 [Example 35, (8aS)-2-(3-{[4-(4-fluorophenyl)piperazin-1-yl]sulfonyl}benzoyl)octahydropyrrolo[1,2-a]pyrazine] | 4.8 µM
18 | O=C(c1cccc(S(=O)(=O)Nc2ccccc2-c2ccccc2)c1)N1CCN2CCC[C@H]2C1 [Example 36, N-1,1′-biphenyl-2-yl-3-[(8aS)-hexahydropyrrolo[1,2-a]pyrazin-2(1H)-ylcarbonyl]benzenesulfonamide] | 4.7 µM
19 | O=C(c1cccc(S(=O)(=O)Nc2cccc(C(F)(F)F)c2)c1)N1CCN2CCCCC2C1 (centres unmarked) [Example 38, 3-(octahydro-2H-pyrido[1,2-a]pyrazin-2-ylcarbonyl)-N-[3-(trifluoromethyl)phenyl]benzenesulfonamide] | 4.6 µM
20 | O=C(c1cccc(S(=O)(=O)Nc2ccccc2F)c1)N1CCN2CCCCC2C1 (centres unmarked) [Example 39, N-(2-fluorophenyl)-3-(octahydro-2H-pyrido[1,2-a]pyrazin-2-ylcarbonyl)benzenesulfonamide] | 4.1 µM
21 | O=C(c1cccc(S(=O)(=O)Nc2ccc(F)cc2)c1)N1CCC(N2CCCC2)CC1 [Example 40, N-(4-fluorophenyl)-3-[(4-pyrrolidin-1-ylpiperidin-1-yl)carbonyl]benzenesulfonamide] | 4.1 µM

The remaining lines, values ahead:

Row | IC50 | SMILES
22 | 5 µM | O=C(c1cccc(S(=O)(=O)Nc2ccccc2)c1)N1CCC(N2CCCC2)CC1 [Example 41, N-phenyl-3-[(4-pyrrolidin-1-ylpiperidin-1-yl)carbonyl]benzenesulfonamide]
23 | 5.8 µM | O=C(c1cccc(S(=O)(=O)Nc2ccc(C(F)(F)F)cc2)c1)N1CCC(N2CCCC2)CC1 [Example 42, 3-[(4-pyrrolidin-1-ylpiperidin-1-yl)carbonyl]-N-[4-(trifluoromethyl)phenyl]benzenesulfonamide]
24 | 4.9 µM | O=C(c1cccc(S(=O)(=O)Nc2cccc(C(F)(F)F)c2)c1)N1CCC(N2CCCC2)CC1 [Example 43, 3-[(4-pyrrolidin-1-ylpiperidin-1-yl)carbonyl]-N-[3-(trifluoromethyl)phenyl]benzenesulfonamide]
25 | 4.9 µM | O=C(c1cccc(S(=O)(=O)Nc2cccc(F)c2)c1)N1CCC(N2CCCC2)CC1 [Example 44, N-(3-fluorophenyl)-3-[(4-pyrrolidin-1-ylpiperidin-1-yl)carbonyl]benzenesulfonamide]
26 | > 10 µM | O=C(c1cccc(S(=O)(=O)Nc2ccccc2F)c1)N1CCC(N2CCCC2)CC1 [Example 45, N-(2-fluorophenyl)-3-[(4-pyrrolidin-1-ylpiperidin-1-yl)carbonyl]benzenesulfonamide]
27 | 1.8 µM | O=C(c1cccc(S(=O)(=O)Nc2ccc(F)cc2)c1)N1CCC(N2CCCCC2)CC1 [Example 46, 3-(1,4′-bipiperidin-1′-ylcarbonyl)-N-(4-fluorophenyl)benzenesulfonamide]
28 | 3.8 µM | O=C(c1cccc(S(=O)(=O)Nc2ccccc2F)c1)N1CCC(N2CCCCC2)CC1 [Example 47, 3-(1,4′-bipiperidin-1′-ylcarbonyl)-N-(2-fluorophenyl)benzenesulfonamide]
29 | > 10 µM | O=C(c1cccc(S(=O)(=O)Nc2cccc(F)c2)c1)N1CCC(N2CCCCC2)CC1 [Example 48, 3-(1,4′-bipiperidin-1′-ylcarbonyl)-N-(3-fluorophenyl)benzenesulfonamide]
30 | 1.3 µM | O=C(c1cccc(S(=O)(=O)Nc2ccc(C(F)(F)F)cc2)c1)N1CCC(N2CCCCC2)CC1 [Example 49, 3-(1,4′-bipiperidin-1′-ylcarbonyl)-N-[4-(trifluoromethyl)phenyl]benzenesulfonamide]
31 | 0.6 µM | O=C(c1cccc(S(=O)(=O)N2CCN3CCC[C@@H]3C2)c1)N1CCN(C(c2ccc(F)cc2)c2ccc(F)cc2)CC1 [Example 50, (8aR)-2-{[3-({4-[bis(4-fluorophenyl)methyl]piperazin-1-yl}carbonyl)phenyl]sulfonyl}octahydropyrrolo[1,2-a]pyrazine]
32 | 0.9 µM | O=C(c1cccc(S(=O)(=O)N2CCN3CCC[C@H]3C2)c1)N1CCN(C(c2ccc(F)cc2)c2ccc(F)cc2)CC1 [Example 51, (8aS)-2-{[3-({4-[bis(4-fluorophenyl)methyl]piperazin-1-yl}carbonyl)phenyl]sulfonyl}octahydropyrrolo[1,2-a]pyrazine]

Source: patent publication US8741899B2, “(4-chloro-2-fluoro-N-(2-fluorophenyl)-5-[(8aR)-hexahydropyrrolo-[1,2-a]pyrazin-2(1H)-ylcarbonyl]-benzenesulfonamide, and pharmaceutically acceptable salts thereof” (AbbVie Inc., priority 2009, dated 2014)
